Legend:
[1] = target: T1, Androgen receptor (Rattus norvegicus, UniProt P15207); format: functional
T1 sequence (P15207 whole entry): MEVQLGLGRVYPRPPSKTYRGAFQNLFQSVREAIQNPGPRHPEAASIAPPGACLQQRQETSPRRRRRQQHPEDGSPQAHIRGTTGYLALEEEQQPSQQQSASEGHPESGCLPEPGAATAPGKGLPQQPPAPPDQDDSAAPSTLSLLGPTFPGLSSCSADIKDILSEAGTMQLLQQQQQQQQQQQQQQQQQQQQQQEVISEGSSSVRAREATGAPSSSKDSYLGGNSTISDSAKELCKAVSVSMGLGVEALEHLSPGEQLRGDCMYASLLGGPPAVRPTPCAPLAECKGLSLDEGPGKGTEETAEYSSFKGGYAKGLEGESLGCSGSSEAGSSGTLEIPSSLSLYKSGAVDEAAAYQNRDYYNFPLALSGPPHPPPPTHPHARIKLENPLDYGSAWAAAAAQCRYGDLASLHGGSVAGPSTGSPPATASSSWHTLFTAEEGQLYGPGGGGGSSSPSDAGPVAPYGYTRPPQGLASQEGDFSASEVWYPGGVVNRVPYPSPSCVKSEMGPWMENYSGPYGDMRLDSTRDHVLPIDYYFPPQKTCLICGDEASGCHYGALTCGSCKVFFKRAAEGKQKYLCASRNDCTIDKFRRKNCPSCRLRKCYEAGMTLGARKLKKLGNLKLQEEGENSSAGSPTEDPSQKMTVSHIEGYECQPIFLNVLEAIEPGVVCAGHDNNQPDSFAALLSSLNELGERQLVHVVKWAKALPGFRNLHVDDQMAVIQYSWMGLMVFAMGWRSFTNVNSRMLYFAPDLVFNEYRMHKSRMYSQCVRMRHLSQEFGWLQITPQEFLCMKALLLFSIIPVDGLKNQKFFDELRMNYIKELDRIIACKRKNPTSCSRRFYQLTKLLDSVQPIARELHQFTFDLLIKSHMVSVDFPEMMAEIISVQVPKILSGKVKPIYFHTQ

[2] = target: Estrogen receptor beta (Homo sapiens, UniProt Q92731)
[3] = target: Beta-3 adrenergic receptor (Homo sapiens, UniProt P13945)
[4] = target: Voltage-dependent N-type calcium channel subunit alpha-1B (Rattus norvegicus, UniProt Q02294); format: functional
[5] = target: Substance-P receptor (Homo sapiens, UniProt P25103)
[6] = target: T2, D(4) dopamine receptor (Homo sapiens, UniProt P21917)
T2 sequence (P21917 whole entry): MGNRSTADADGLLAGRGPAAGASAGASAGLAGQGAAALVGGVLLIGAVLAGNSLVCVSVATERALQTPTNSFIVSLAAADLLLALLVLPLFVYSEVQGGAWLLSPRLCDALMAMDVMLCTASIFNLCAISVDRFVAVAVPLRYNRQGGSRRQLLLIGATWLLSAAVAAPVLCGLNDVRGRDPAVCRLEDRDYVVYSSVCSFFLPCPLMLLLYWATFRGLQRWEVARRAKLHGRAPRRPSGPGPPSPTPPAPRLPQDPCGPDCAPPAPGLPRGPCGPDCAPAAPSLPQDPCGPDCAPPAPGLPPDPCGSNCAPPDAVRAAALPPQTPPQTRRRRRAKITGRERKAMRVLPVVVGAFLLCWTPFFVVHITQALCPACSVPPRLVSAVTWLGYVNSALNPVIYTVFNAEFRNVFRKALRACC

[7] = target: T3, Alpha-1A adrenergic receptor (Homo sapiens, UniProt P35348)
T3 sequence (P35348 whole entry): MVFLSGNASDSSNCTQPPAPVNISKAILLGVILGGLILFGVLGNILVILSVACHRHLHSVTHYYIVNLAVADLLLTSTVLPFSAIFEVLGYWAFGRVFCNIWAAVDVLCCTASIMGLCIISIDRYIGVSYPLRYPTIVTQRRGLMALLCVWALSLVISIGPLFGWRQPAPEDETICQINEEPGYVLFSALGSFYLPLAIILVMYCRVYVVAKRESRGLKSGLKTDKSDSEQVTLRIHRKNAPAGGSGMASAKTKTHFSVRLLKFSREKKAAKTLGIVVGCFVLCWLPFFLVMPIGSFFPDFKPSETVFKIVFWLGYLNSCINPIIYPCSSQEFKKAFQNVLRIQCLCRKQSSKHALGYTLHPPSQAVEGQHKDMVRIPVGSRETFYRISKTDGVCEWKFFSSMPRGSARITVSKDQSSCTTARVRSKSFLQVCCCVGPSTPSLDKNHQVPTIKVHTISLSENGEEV

[8] = target: T4, Androgen receptor (Homo sapiens, UniProt P10275)
T4 sequence (P10275 whole entry): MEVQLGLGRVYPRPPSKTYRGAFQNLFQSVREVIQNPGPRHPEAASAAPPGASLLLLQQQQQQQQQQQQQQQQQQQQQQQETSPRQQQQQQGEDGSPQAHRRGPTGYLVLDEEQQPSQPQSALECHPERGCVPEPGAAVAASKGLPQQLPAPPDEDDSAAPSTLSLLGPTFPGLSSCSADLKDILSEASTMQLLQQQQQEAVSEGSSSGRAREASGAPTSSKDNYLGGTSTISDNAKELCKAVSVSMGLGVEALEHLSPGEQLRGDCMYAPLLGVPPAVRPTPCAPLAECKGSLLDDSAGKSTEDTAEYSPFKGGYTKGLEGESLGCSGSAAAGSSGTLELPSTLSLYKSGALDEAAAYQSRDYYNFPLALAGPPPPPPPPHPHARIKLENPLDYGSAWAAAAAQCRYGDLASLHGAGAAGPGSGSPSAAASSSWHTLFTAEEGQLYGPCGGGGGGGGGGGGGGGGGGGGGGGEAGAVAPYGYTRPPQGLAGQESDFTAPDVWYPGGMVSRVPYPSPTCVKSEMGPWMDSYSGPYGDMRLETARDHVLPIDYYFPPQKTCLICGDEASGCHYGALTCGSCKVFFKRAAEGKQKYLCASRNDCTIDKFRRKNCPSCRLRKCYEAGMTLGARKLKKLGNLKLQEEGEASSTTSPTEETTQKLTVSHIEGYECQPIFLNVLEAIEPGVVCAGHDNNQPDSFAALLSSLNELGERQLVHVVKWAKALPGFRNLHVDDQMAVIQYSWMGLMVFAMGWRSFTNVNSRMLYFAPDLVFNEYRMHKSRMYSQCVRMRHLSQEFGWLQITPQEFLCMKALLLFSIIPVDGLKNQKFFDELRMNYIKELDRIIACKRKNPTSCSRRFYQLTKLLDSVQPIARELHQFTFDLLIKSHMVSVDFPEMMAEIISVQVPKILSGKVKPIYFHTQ

[9] = target: T1, Androgen receptor
Note: assay procedure not described here.

Sequence of Substance-P receptor (P25103 whole entry): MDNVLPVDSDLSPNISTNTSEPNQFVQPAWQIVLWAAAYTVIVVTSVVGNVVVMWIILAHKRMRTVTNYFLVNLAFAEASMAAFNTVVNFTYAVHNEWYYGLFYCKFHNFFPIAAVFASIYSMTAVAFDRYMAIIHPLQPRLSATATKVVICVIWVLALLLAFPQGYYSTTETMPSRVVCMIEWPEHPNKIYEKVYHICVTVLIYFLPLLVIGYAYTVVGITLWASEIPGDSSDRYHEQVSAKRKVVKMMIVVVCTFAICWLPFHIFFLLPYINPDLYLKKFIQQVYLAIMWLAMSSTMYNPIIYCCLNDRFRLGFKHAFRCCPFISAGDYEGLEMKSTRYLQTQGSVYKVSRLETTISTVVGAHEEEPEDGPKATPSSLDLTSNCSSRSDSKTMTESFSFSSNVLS
Sequence of Beta-3 adrenergic receptor (P13945 whole entry): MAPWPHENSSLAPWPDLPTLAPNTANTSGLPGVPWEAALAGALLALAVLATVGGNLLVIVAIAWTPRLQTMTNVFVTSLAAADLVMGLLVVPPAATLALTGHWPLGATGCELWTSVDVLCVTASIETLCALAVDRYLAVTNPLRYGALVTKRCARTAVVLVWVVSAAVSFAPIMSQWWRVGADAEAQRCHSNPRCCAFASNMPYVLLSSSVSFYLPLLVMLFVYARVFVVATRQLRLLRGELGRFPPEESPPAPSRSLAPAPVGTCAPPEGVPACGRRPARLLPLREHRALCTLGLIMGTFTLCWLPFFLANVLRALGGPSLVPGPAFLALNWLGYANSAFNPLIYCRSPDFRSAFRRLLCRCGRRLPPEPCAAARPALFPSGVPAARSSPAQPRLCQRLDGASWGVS
Sequence of Estrogen receptor beta (Q92731 whole entry): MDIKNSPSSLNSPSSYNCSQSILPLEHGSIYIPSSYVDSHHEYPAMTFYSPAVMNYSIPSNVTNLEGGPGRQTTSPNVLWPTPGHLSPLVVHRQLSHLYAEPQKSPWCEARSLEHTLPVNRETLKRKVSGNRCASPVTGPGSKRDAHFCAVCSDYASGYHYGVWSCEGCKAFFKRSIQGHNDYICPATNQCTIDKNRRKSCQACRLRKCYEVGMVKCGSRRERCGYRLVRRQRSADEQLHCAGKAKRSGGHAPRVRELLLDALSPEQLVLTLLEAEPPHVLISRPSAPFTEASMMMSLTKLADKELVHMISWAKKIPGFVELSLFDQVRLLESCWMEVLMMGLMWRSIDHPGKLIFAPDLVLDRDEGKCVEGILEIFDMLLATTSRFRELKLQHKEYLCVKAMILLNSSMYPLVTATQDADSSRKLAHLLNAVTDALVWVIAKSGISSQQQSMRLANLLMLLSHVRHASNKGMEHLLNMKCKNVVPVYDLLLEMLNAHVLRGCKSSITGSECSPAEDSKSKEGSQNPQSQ
Sequence of Voltage-dependent N-type calcium channel subunit alpha-1B (Q02294 whole entry): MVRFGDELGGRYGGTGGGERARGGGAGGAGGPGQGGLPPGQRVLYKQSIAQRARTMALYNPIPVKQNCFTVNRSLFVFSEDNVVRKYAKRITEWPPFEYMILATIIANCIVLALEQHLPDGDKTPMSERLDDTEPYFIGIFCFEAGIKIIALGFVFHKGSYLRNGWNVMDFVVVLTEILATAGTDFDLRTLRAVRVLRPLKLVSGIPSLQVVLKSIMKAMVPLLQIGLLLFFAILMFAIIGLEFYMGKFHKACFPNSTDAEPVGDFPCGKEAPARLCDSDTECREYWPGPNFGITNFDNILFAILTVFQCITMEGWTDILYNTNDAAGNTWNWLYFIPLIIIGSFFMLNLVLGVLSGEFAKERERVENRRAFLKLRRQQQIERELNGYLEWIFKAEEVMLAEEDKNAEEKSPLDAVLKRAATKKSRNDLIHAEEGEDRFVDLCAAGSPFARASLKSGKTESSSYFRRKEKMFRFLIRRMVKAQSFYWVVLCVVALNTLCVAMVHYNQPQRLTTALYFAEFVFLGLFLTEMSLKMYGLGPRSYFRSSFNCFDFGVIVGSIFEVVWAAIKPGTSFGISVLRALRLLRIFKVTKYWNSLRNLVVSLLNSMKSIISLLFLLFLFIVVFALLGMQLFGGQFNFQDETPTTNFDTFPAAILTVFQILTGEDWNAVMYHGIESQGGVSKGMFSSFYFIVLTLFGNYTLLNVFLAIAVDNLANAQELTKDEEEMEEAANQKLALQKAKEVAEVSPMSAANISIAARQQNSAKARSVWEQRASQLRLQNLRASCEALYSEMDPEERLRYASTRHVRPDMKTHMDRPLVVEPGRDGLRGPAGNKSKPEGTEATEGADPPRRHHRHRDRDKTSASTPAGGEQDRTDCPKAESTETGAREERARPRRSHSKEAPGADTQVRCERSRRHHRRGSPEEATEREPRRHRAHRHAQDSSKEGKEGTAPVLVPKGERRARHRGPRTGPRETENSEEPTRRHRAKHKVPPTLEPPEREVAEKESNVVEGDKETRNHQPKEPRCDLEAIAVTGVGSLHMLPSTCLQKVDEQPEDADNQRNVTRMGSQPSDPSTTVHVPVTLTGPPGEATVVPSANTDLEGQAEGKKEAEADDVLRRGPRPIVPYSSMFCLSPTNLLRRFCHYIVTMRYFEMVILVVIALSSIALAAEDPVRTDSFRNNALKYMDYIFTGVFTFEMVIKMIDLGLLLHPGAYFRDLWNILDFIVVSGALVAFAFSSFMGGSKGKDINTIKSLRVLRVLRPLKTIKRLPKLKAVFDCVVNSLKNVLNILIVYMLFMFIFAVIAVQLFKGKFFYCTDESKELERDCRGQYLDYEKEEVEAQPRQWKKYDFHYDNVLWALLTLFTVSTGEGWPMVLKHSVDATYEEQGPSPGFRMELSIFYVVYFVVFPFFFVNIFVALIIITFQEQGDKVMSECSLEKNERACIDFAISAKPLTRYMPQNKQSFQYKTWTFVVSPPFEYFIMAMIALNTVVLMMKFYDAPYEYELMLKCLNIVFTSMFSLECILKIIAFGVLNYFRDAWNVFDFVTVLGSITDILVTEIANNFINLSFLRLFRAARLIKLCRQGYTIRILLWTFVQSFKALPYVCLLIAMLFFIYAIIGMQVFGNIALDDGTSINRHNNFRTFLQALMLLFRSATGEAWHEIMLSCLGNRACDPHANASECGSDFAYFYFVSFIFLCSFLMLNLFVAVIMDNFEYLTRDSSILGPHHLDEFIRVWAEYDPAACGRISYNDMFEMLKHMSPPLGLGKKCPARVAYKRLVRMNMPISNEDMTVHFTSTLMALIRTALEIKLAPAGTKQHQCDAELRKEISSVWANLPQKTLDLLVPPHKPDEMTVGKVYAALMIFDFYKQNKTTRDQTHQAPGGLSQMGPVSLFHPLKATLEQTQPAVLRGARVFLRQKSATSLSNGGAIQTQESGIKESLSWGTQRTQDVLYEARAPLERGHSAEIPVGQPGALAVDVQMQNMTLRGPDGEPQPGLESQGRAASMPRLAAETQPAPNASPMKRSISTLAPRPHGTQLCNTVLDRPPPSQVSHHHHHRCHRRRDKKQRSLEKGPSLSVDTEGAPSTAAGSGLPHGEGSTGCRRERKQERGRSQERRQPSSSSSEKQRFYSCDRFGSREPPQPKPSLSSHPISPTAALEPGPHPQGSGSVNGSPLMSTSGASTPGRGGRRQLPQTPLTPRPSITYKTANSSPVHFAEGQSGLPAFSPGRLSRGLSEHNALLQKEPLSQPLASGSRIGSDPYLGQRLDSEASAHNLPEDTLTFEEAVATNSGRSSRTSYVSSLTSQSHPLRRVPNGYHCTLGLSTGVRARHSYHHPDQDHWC

Compound `C=CCNc1nc(NCC=C)nc(N2CCN(C(c3ccc(F)cc3)c3ccc(F)cc3)CC2)n1` [ALMITRINE] has an AC50 [1] greater than 30 µM.
For `CC12CC3CC(C)(C1)CC(N)(C3)C2` [MEMANTINE], the AC50 [2] was greater than 30 µM, the AC50 [3] was 20.1 µM and the AC50 [4] was greater than 10 µM.
For `CC(CCc1ccc(O)cc1)NCCc1ccc(O)c(O)c1` (stereo not drawn) [DOBUTAMINE], the AC50 [2] was greater than 30 µM, the AC50 [5] was greater than 10 µM and the AC50 [6] was 2.42 µM. The AC50 [3] was greater than 30 µM, the AC50 [7] was 0.0704 µM and the AC50 [4] was greater than 10 µM.
In the case of `CCC(C)C(CC)C(N)=O` (stereo not drawn) [VALNOCTAMIDE], the AC50 [1] is reported as greater than 30 µM.
With `CN1CCN(C2=Nc3ccccc3Oc3ccc(Cl)cc32)CC1` [LOXAPINE] the AC50 [2] was greater than 30 µM, the AC50 [5] was greater than 10 µM and the AC50 [6] was 0.0144 µM. It also gave an AC50 [3] greater than 30 µM, an AC50 [7] of 0.169 µM and an AC50 [4] greater than 10 µM.
`COc1cc(N2CCC(N3CCN(C)CC3)CC2)ccc1Nc1ncc(Cl)c(Nc2ccccc2P(C)(C)=O)n1` [BRIGATINIB] was tested, and the AC50 [8] was greater than 30 µM.
For `CCCc1nc(C(C)(C)O)c(C(=O)O)n1Cc1ccc(-c2ccccc2-c2nnn[nH]2)cc1` [OLMESARTAN], the AC50 [8] was greater than 30 µM.
With `c1ccc2c(c1)CCc1ccccc1N2C1CN2CCC1CC2` (stereo not drawn) [QUINUPRAMINE] the AC50 [8] was greater than 30 µM.
`Cc1cccc(N2CC(CO)OC2=O)c1` (stereo not drawn) [TOLOXATONE] showed an AC50 [1] greater than 30 µM.
Compound `CCOC(=O)N1CSC[C@H]1C(=O)O` [TELMESTEINE] has an AC50 [8] greater than 30 µM.
`CCC(=O)O[C@]1(C(=O)SCF)[C@H](C)C[C@H]2[C@@H]3C[C@H](F)C4=CC(=O)C=C[C@]4(C)[C@@]3(F)[C@@H](O)C[C@@]21C` [FLUTICASONE PROPIONATE] gave an AC50 [5] greater than 10 µM, an AC50 [6] greater than 10 µM and an AC50 [3] greater than 30 µM. For the same compound, the AC50 [7] was greater than 10 µM and the AC50 [4] was greater than 10 µM.
With `Oc1ccc2c(c1)CC[C@H](c1ccccc1)[C@@H]2c1ccc(OCCN2CCCC2)cc1` [LASOFOXIFENE] the AC50 [1] was 23 µM.
For `CCC[C@H](NC(=O)[C@@H]1[C@H]2CCC[C@H]2CN1C(=O)[C@@H](NC(=O)[C@@H](NC(=O)c1cnccn1)C1CCCCC1)C(C)(C)C)C(=O)C(=O)NC1CC1`, the AC50 [9] was greater than 30 µM, the AC50 [3] was greater than 30 µM and the AC50 [4] was greater than 10 µM.
In the case of `CC1=CCC(C(C)(C)O)CC1O` (stereo not drawn) [SOBREROL], the AC50 [8] is reported as greater than 30 µM.
For `NCC(CC(=O)O)c1ccccc1` (stereo not drawn) [PHENIBUT], the AC50 [8] was greater than 30 µM.
For `CNCc1ccc(-c2[nH]c3cc(F)cc4c3c2CCNC4=O)cc1` [RUCAPARIB], the AC50 [9] was greater than 30 µM.
For `CC1OC2(CS1)CN1CCC2CC1` (stereo not drawn) [CEVIMELINE], the AC50 [9] was greater than 10 µM.
Work on `C[C@H](Cc1cc2c(c(C(N)=O)c1)N(CCCO)CC2)NCCOc1ccccc1OCC(F)(F)F` [SILODOSIN] yielded an AC50 [8] greater than 30 µM.
Work on `CC(N)C(O)c1ccccc1` (stereo not drawn) [PHENYLPROPANOLAMINE] yielded an AC50 [5] greater than 10 µM, an AC50 [6] greater than 10 µM and an AC50 [3] greater than 30 µM. The AC50 [7] was greater than 10 µM and the AC50 [4] was greater than 10 µM.
For `Cc1cnc(C(=O)NCCc2ccc(S(=O)(=O)NC(=O)NC3CCCCC3)cc2)cn1` [GLIPIZIDE], the AC50 [2] was greater than 30 µM, the AC50 [5] was greater than 10 µM and the AC50 [6] was greater than 10 µM. It also gave an AC50 [3] greater than 30 µM, an AC50 [7] greater than 10 µM and an AC50 [4] greater than 10 µM.
`CCOC(=O)C1=C(C)NC(C)=C(C(=O)OC)C1c1cccc([N+](=O)[O-])c1` (stereo not drawn) [NITRENDIPINE] showed an AC50 [2] greater than 30 µM, an AC50 [3] of 15.1 µM and an AC50 [4] greater than 10 µM.
In the case of `COCC1=C(C(=O)O)N2C(=O)[C@@H](NC(=O)/C(=N\OC)c3csc(N)n3)[C@H]2SC1` [CEFPODOXIME], the AC50 [1] is reported as greater than 30 µM.
For `OC1(c2ccc(Cl)cc2)c2ccccc2C2=NCCN21` (stereo not drawn) [MAZINDOL], the AC50 [1] was greater than 30 µM, the AC50 [2] was greater than 30 µM and the AC50 [9] was greater than 30 µM. For the same compound, the AC50 [5] was greater than 10 µM, the AC50 [6] was greater than 10 µM and the AC50 [3] was greater than 30 µM. It also gave an AC50 [7] greater than 10 µM and an AC50 [4] greater than 10 µM.
With `Clc1ccc2c(N3CCN(CCCN4CCN(c5ccnc6cc(Cl)ccc56)CC4)CC3)ccnc2c1` [PIPERAQUINE] the AC50 [1] was greater than 30 µM.
`CC(C)NCC(O)c1ccc(O)c(O)c1` (stereo not drawn) [ISOPROTERENOL] gave an AC50 [2] greater than 30 µM, an AC50 [5] greater than 10 µM and an AC50 [6] greater than 10 µM. The AC50 [4] was greater than 10 µM.
For `CCC1(c2ccccc2)CCC(=O)NC1=O` (stereo not drawn) [GLUTETHIMIDE], the AC50 [9] was greater than 10 µM.
For `CC(C)N(CCNC(=O)CN1CCCC1=O)C(C)C`, the AC50 [8] was greater than 30 µM.
`CC(C)COCC(CN(Cc1ccccc1)c1ccccc1)N1CCCC1` (stereo not drawn) [BEPRIDIL] showed an AC50 [2] greater than 30 µM and an AC50 [3] of 11.9 µM.
`O=C(O)c1cn(C2CC2)c2cc(N3CCNCC3)c(F)cc2c1=O` [CIPROFLOXACIN] gave an AC50 [2] greater than 30 µM and an AC50 [5] greater than 10 µM.
`CCC(=O)O[C@H]1CC[C@H]2[C@@H]3CCC4=CC(=O)CC[C@]4(C)[C@H]3CC[C@]12C` [TESTOSTERONE PROPIONATE] gave an AC50 [9] of 1.7 µM.
Work on `[H]/N=C(/N)N/C(=N/[H])NCCc1ccccc1` [PHENFORMIN] yielded an AC50 [2] greater than 30 µM, an AC50 [3] greater than 30 µM and an AC50 [4] greater than 10 µM.
Compound `CN(C)CCCNc1c2ccccc2nc2cccc([N+](=O)[O-])c12` [NITRACRINE] has an AC50 [1] greater than 30 µM.
`CNC1=Nc2ccc(Cl)cc2C(c2ccccc2)=[N+]([O-])C1` [CHLORDIAZEPOXIDE] showed an AC50 [9] greater than 30 µM.
`CN(C)CCOC(c1ccccc1)c1ccc(Br)cc1` (stereo not drawn) [BROMODIPHENHYDRAMINE] showed an AC50 [8] greater than 30 µM.
`CCC(C)C1(CC)C(=O)NC(=O)NC1=O` (stereo not drawn) [BUTABARBITAL] was tested, and the AC50 [1] was greater than 30 µM.

Source: ChEMBL document CHEMBL5291721, “A preclinical secondary pharmacology resource illuminates target-adverse drug reaction associations of marketed drugs” (Nat Commun, 2023)
